Where a SMILES comes first, the peptide text is derived from it. Bridges are numbered along the chain shown (N, C = ends). [ ]: non-standard residue; d: D form. The star is where a group is joined. ξ: configuration not given here. Decanoyl(3ξ-OH) = CCCCCCCC(O)CC(=O)*; X1 = CCCCCC/C=C/CC(O)CC(=O)*; Dab = NCC[CH](N)C(=O)O
How the values were obtained:
IHNV HV7601 strain = test: Antiviral activity by plaque reduction, IHNV in CHSE-214 cells; type: cell-based, infectious hematopoietic necrosis virus (IHNV) in salmonid; conditions: decrease in number of plaques, sample and virus pre-incubated at 10° C. for 2 hours
Description: (§1) Evaluation of the antiviral activity was conducted by the same method as described by Burke et al. (Appln. Env. Microbiol., 29, 872-876, 1980) except for the following partial modification. • (1) A sample to be measured for its antiviral activity is dissolved in dimethyl sulfoxide (DMSO) and then diluted with Hank's solution. • (2) 0.2 mL each of the diluted solution in (1) and a viral solution (IHNV HV7601 strain; 100 to 200 PFU/sample) diluted with Hank's solution are mixed and incubated at 10° C. for 2 hours. • (3) After the incubation in (2), the sample is inoculated for 30 minutes in CHSE-214 cells previously cultured for 24 hours in a 24-well cell culture plate. • (4) The sample is removed from each well, and an MEM medium containing. 0.8% methyl cellulose is overlaid on the cells and cultured for 7 days. • (5) The cells on the culture plate are fixed in 3.7% aqueous formalin, and after staining with 1% Crystal Violet, the number of plaques is counted. • (6) The antiviral activity is expressed in terms of the decrease in the number of plaques, relative to that decrease on wells to which the sample was not added. (Composition of the Medium) • a) 5.00 g polypeptone, 2.50 g meat extract, 2.50 g yeast extract, 0.20 g K2HPO4, 0.05 g MgSO4, 1.00 g glucose, 5.00 g NaCl, 1000 mL distilled water, pH 7.5, which were autoclaved at 121° C. for 15 minutes. • b) 15.00 g agar for microorganisms is added to a).
In the following examples, the evaluation of the antiviral activity was conducted in the method described above.
(§2) The antiviral activities of the present peptide MA026 against infectious hematopoietic necrosis virus (IHNV) in salmonid, rhabdovirus (EVA) in American eels and rhabdovirus (EVEX) in European eels were measured according to the method described in Example 1.

hepatitis C virus (HCV) = type: cell-based; conditions: summary of Table 14
Description: Using the present peptides MA026, BTI-MA026 and R2MA026 as objects, the antiviral effect against hepatitis C virus (HCV) was examined. The experiments were conducted according to the method of Mizutani et al. (Biochem. Biophys. Res. Commun. 227, 822-826, 1996) under supervision of Dr. Kunitada Shimotohno at Institute for Viral Research, Kyoto University. • (1) 1×10^6 gene titer per 0.1 mL of HCV was infected with 1×10^6 MT-2C cells per 1 mL, and cultured at 32° C. for 4 days. • (2) The infected cells of (1) were divided (10^5 cells per well) into a 96-well plate and incubated at 32° C. for 1 day. • (3) Each of the present peptides was added to each well so that the concentration thereof became 1 μM and 5 μM, and incubated at 32° C. for further 2 days. • (4) RNA was extracted from the test cells, and after synthesized cDNA with a reverse transcriptase, PCR of first and second round were performed to detect the HCV gene. • (5) The inhibition effect against HCV was evaluated by comparing fluorescence intensities of the PCR products originated from the HCV infected cells to which the test sample was added, assuming the fluorescence intensity of the PCR product originated from the infected cells to which no test substance was added, to be 100%.

[1] = test system: rhabdovirus (EVA) in American eels; test: Antiviral activity by plaque reduction, EVA; type: cell-based; conditions: method of Example 1, decrease in number of plaques
Description: as §1, with “(Composition of the Medium) • a) 5.00 g polypeptone, 2.50 g meat extract, 2.50 g yeast extract, 0.20 g K2HPO4, 0.05 g MgSO4, 1.00 g glucose, 5.00 g NaCl, 1000 mL distilled water, pH 7.5, which were autoclaved at 121° C. for 15 minutes. • b) 15.00 g agar for microorganisms is added to a).” left out
as §2

[2] = test system: rhabdovirus (EVEX) in European eels; test: Antiviral activity by plaque reduction, EVEX; type: cell-based; conditions: method of Example 1, decrease in number of plaques
Description: as §1, with “(Composition of the Medium) • a) 5.00 g polypeptone, 2.50 g meat extract, 2.50 g yeast extract, 0.20 g K2HPO4, 0.05 g MgSO4, 1.00 g glucose, 5.00 g NaCl, 1000 mL distilled water, pH 7.5, which were autoclaved at 121° C. for 15 minutes. • b) 15.00 g agar for microorganisms is added to a).” left out
as §2

[3] = test system: white spot syndrome virus (WSSV); test: Antiviral effect against shrimp virus: injection of peptide-treated WSSV into shrimp; type: in vivo, Penaeus monodon (black tiger shrimp); conditions: WSSV mixed with equal volume of 100 μg/mL peptide solution, 25° C. 1 hour, 0.1 mL intramuscular; observed 2 weeks; 10 shrimps per group
Description: Penaeus monodon (black tiger shrimp) weighing about 20 g were divided at random into groups each consisting of 10 shrimps and raised separately. A viral culture fluid prepared by diluting the white spot syndrome virus (WSSV LD50 value; 10^−3.6) 2000-fold with Hank's solution was mixed with an equal volume of a diluted solution (100 μg/mL) of the present peptides MA026 and BTI-MA026. After the mixture was incubated at 25° C. for 1 hour, the solution was intramuscularly injected at a dose of 0.1 mL into each shrimp, for viral inoculation. Whether the shrimps were actually inoculated with the virus or not was determined by observing them for 2 weeks after viral infection, and pathologically examining the ones that dies. The lesion tissues were examined to detect the viral gene by the PCR method. In the control group, Hank's solution only was used.

Compound | antiviral activity against IHNV (IHNV HV7601 strain) | proliferation of hepatitis C virus (hepatitis C virus (HCV)) | antiviral activity against EVA [1] | antiviral activity against EVEX [2] | dead shrimp after inoculation with WSSV [3]
CCCCCCCC(O)CC(=O)NC(CC(C)C)C(=O)NC(CCC(=O)O)C(=O)NC(CCN)C(=O)NC(C(=O)NC(CC(C)C)C(=O)NC(CCN)C(=O)NC(CO)C(=O)NC(C(=O)NC(CC(C)C)C(=O)NC(CC(C)C)C(=O)NC(CCN)C(=O)NC(CC(C)C)C(=O)NC(CCN)C(=O)NC(C(=O)O)C(C)CC)C(C)C)C(C)C (stereo not drawn) [BTI-base MA026] ({Decanoyl(3ξ-OH)}-LE[Dab]VL[Dab]SVLL[Dab]L[Dab]I-OH; configuration not given here) | confirmed |  |  |  | 
CCCCCCCC(O)CC(=O)NC(CC(C)C)C(=O)NC(CCC(=O)O)C(=O)NC(CCC(N)=O)C(=O)NC(C(=O)NC(CC(C)C)C(=O)NC(CCC(N)=O)C(=O)NC1COC(=O)C(CC(C)C)NC(=O)C(CCC(N)=O)NC(=O)C(CC(C)C)NC(=O)C(CCC(N)=O)NC(=O)C(CC(C)C)NC(=O)C(C(C)C)NC(=O)C(C(C)C)NC1=O)C(C)C (stereo not drawn) [R1MA026] ({Decanoyl(3ξ-OH)}-LEQVLQSVVLQLQL; ester 7-C; configuration not given here) | confirmed |  |  |  | 
CCCCCC/C=C/CC(O)CC(=O)NC(CC(C)C)C(=O)NC(CCC(=O)O)C(=O)NC(CCC(N)=O)C(=O)NC(C(=O)NC(CC(C)C)C(=O)NC(CCC(N)=O)C(=O)NC1COC(=O)C(C(C)CC)NC(=O)C(CCC(N)=O)NC(=O)C(CC(C)C)NC(=O)C(CCC(N)=O)NC(=O)C(CC(C)C)NC(=O)C(CC(C)C)NC(=O)C(C(C)C)NC1=O)C(C)C (stereo not drawn) [R2MA026] (X1-LEQVLQSVLLQLQI; ester 7-C; configuration not given here) | confirmed | inhibited |  |  | 
CCCCCCCC(O)CC(=O)NC(CC(C)C)C(=O)NC(CCC(=O)O)C(=O)NC(CCC(N)=O)C(=O)NC(C(=O)NC(CC(C)C)C(=O)NC(CCC(N)=O)C(=O)NC1COC(=O)C(C(C)CC)NC(=O)C(CCC(N)=O)NC(=O)C(CC(C)C)NC(=O)C(CCC(N)=O)NC(=O)C(CC(C)C)NC(=O)C(CC(C)C)NC(=O)C(C(C)C)NC1=O)C(C)C (stereo not drawn) [MA026] ({Decanoyl(3ξ-OH)}-LEQVLQSVLLQLQI; ester 7-C; configuration not given here) | high antiviral activity | inhibited | high antiviral activity | high antiviral activity | no dead shrimp
CCCCCCCC(O)CC(=O)NC(CC(C)C)C(=O)NC(CCC(=O)O)C(=O)NC(CCN)C(=O)NC(C(=O)NC(CC(C)C)C(=O)NC(CCN)C(=O)NC1COC(=O)C(C(C)CC)NC(=O)C(CCN)NC(=O)C(CC(C)C)NC(=O)C(CCN)NC(=O)C(CC(C)C)NC(=O)C(CC(C)C)NC(=O)C(C(C)C)NC1=O)C(C)C (stereo not drawn) [BTI-MA026] ({Decanoyl(3ξ-OH)}-LE[Dab]VL[Dab]SVLL[Dab]L[Dab]I; ester 7-C; configuration not given here) | confirmed | inhibited |  |  | no dead shrimp
